Measured values reported in patent publication US11078168B2, “Substituted N-hydroxyamidinoheterocycles as modulators of indoleamine 2,3-dioxygenase” (PHENEX DISCOVERY VERWALTUNGS-GMBH, priority 2016, dated 2021).

Each molecule was assayed against T1, Indoleamine 2,3-dioxygenase (Homo sapiens, UniProt P14902) (assay: SKOV-3 cellular Indoleamine 2,3-dioxygenase assay). Settings: SKOV-3 cells, 50 ng/ml Interferon gamma, 100 μM L-Tryptophan, 24 hours, N-Formylkynurenin fluorescence detection; read-out: cell based activity.
T1 construct: endogenous in cells; host or cells: SKOV-3 (ATCC HTB-77), stimulated with interferon gamma
T1 sequence (P14902 whole entry): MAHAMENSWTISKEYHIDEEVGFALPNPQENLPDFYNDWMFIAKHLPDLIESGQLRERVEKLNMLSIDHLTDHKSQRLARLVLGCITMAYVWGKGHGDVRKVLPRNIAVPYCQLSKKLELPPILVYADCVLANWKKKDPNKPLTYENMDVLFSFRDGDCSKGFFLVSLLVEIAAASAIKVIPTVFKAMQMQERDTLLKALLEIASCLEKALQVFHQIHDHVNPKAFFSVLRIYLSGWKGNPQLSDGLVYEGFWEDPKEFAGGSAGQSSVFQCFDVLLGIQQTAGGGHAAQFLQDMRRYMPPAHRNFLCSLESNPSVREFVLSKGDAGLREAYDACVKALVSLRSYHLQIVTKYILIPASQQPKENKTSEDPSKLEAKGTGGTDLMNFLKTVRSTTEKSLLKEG
Experimental: SKOV-3 cellular Indoleamine 2,3-dioxygenase assay
SKOV-3 cells were obtained from the American Type Culture Collection (ATCC® HTB-77™) and maintained in McCoy's medium (Pan Biotech) supplemented with 10% fetal bovine serum and 1% Penicilin/Streptomycin. Cells were kept at 37° C. in a humidified incubator with 5% CO2. For assay preparation, cells were seeded at a density of 2*10^5/ml into black clear bottom 96 well plates in 100 μl medium/well supplemented with 50 ng/ml Interferon gamma (eBioscience, Thermo Fisher Scientific). After cells fully adhered to the plate, dilution series of compounds were added in medium containing additional L-Tryptophan to a final L-Tryptophan concentration of 100 μM. The cells were incubated for 24 hours. Detection of produced N-Formylkynurenin was performed by addition of 3-Methylpiperidine to a final concentration of 200 mM. The plates were sealed and heated to 65° C. for 20 minutes in a water bath. After cooling the fluorescence of each well was recorded with a Victor™X4 (PerkinElmer) plate reader at an emission wavelength of 535 nm and excitation at 405 nm (Tomek et al.; Anal Bioanal Chem (2013) 405:2515-2524., Tomek et al.; Biochim Biophys Acta. 2015 September; 1850(9):1772-80).

SMILES | IC50
CC(CNS(N)(=O)=O)Oc1nonc1C(=NO)Nc1ccc(F)c(Cl)c1 (single isomer, unassigned) [16/1, N-(3-Chloro-4-fluorophenyl)-N′-hydroxy-4-((1-(sulfamoylamino)propan-2-yl)oxy)-1,2,5-oxadiazole-3-carboximidamide] | > 1000 nM
C[C@@H](CSc1nonc1C(=NO)Nc1ccc(F)c(C(F)F)c1)NC(=O)CS(N)(=O)=O (single isomer, unassigned) [114/1] | < 100 nM
C[C@H](CSc1nonc1C(=NO)Nc1ccc(F)c(C(F)F)c1)NC(=O)CCS(N)(=O)=O (single isomer, unassigned) [114/2] | < 100 nM
C[C@@H](CSc1nonc1C(=NO)Nc1ccc(F)c(C(F)F)c1)NC(=O)CCS(N)(=O)=O (single isomer, unassigned) [114/3] | < 100 nM
C[C@H](CSc1nonc1/C(=N/O)Nc1ccc(F)c(Br)c1)NC(=O)CS(N)(=O)=O (single isomer, unassigned) [114/4] | < 100 nM
C[C@@H](CSc1nonc1/C(=N/O)Nc1ccc(F)c(Br)c1)NC(=O)CS(N)(=O)=O (single isomer, unassigned) [114/5] | < 100 nM
CC(CNS(N)(=O)=O)Oc1nonc1C(=NO)Nc1ccc(F)c(Cl)c1 (single isomer, unassigned) [Example 16, N-(3-Chloro-4-fluorophenyl)-N′-hydroxy-4-((1-(sulfamoylamino)propan-2-yl)oxy)-1,2,5-oxadiazole-3-carboximidamide] | > 1000 nM
CC(CSc1nonc1C(=NO)Nc1ccc(F)c(C(F)F)c1)NC(=O)CS(N)(=O)=O (single isomer, unassigned) [Example 114, N-(1-((4-(N-(3-(difluoromethyl)-4-fluorophenyl)-N′-hydroxycarbamimidoyl)-1,2,5-oxadiazol-3-yl)thio)propan-2-yl)-2-sulfamoylacetamide] | < 100 nM
CC(CSc1nonc1C(=NO)Nc1ccc(F)c(C(F)F)c1)NC(=O)CC(N)=O (single isomer, unassigned) [Example 115, N^1-(1-((4-(N-(3-(Difluoromethyl)-4-fluorophenyl)-N′-hydroxycarbamimidoyl)-1,2,5-oxadiazol-3-yl)thio)propan-2-yl)malonamide] | < 100 nM
CC(CSc1nonc1C(=NO)Nc1ccc(F)c(C(F)F)c1)NC(=O)CC(N)=O (single isomer, unassigned) [Example 115/1, N^1-(1-((4-(N-(3-(difluoromethyl)-4-fluorophenyl)-N′-hydroxycarbamimidoyl)-1,2,5-oxadiazol-3-yl)thio)propan-2-yl)malonamide] | < 100 nM
CS(=O)(=O)NCCOc1nonc1C(=NO)Nc1ccc(F)c(Cl)c1 [1/1] | < 100 nM
O=S(=O)(NCCOc1nonc1C(=NO)Nc1ccc(F)c(Cl)c1)C(F)(F)F [1/2] | > 1000 nM
O=S(=O)(NCCOc1nonc1C(=NO)Nc1ccc(F)c(Cl)c1)C(F)F [1/3] | < 100 nM
C[S+]([O-])NCCOc1nonc1C(=NO)Nc1ccc(F)c(Cl)c1 (stereo not drawn) [1/4] | 100 to 1000 nM
Nc1c(NCCOc2nonc2C(=NO)Nc2ccc(F)c(Br)c2)c(=O)c1=O [2/1] | < 100 nM
Nc1c(NCCOc2nonc2C(=NO)Nc2ccc(F)c(C(F)F)c2)c(=O)c1=O [2/3] | < 100 nM
Nc1c(NCCCOc2nonc2C(=NO)Nc2ccc(F)c(Cl)c2)c(=O)c1=O [2/4] | < 100 nM
Nc1c(NCCOc2nonc2C(=NO)Nc2ccc(F)c(C(F)(F)F)c2)c(=O)c1=O [2/5] | < 100 nM
Nc1c(NCCOc2nonc2C(=NO)Nc2cccc(C(F)(F)F)c2)c(=O)c1=O [2/6] | < 100 nM
Nc1c(NCCOc2nonc2C(=NO)Nc2cccc(C(F)F)c2)c(=O)c1=O [2/7] | 100 to 1000 nM
N[C@@H](CC(=O)NCCOc1nonc1C(=NO)Nc1ccc(F)c(Cl)c1)C(=O)O [3/1] | 100 to 1000 nM
O=C(NCCOc1nonc1C(=NO)Nc1ccc(F)c(Cl)c1)C1(O)CNC1 [3/2] | 100 to 1000 nM
O=C(NCCOc1nonc1C(=NO)Nc1ccc(F)c(Cl)c1)C1(F)CNC1 [3/3] | 100 to 1000 nM
NC(C(=O)NCCOc1nonc1C(=NO)Nc1ccc(F)c(Cl)c1)C(F)(F)F (stereo not drawn) [3/4] | < 100 nM
NC(=O)CS(=O)(=O)NCCOc1nonc1C(=NO)Nc1ccc(F)c(C(F)(F)F)c1 [4/1] | < 100 nM
NC(=O)CS(=O)(=O)NCCOc1nonc1C(=NO)Nc1ccc(F)c(C(F)F)c1 [4/2] | < 100 nM

SMILES | IC50
NS(=O)(=O)NCCOc1nonc1/C(=N/O)Nc1ccc(F)c(Cl)c1 [6/1] | < 100 nM
NS(=O)(=O)NCCOc1nonc1C(=NO)Nc1ccc(F)c(C(F)F)c1 [6/2] | < 100 nM
NS(=O)(=O)NCCOc1nonc1C(=NO)Nc1cccc(C(F)F)c1 [6/3] | 100 to 1000 nM
CN(CCOc1nonc1C(=NO)Nc1ccc(F)c(Cl)c1)S(N)(=O)=O [6/4] | 100 to 1000 nM
CNS(=O)(=O)N(C)CCOc1nonc1C(=NO)Nc1ccc(F)c(Cl)c1 [6/5] | 100 to 1000 nM
CN(C)S(=O)(=O)NCCOc1nonc1C(=NO)Nc1ccc(F)c(Cl)c1 [6/6] | < 100 nM
NC(=O)CC(=O)NCCOc1nonc1C(=NO)Nc1ccc(F)c(Cl)c1 [7/1, N^1-(2-((4-(N-(3-chloro-4-fluorophenyl)-N′-hydroxycarbamimidoyl)-1,2,5-oxadiazol-3-yl)oxy)ethyl)malonamide] | < 100 nM
COc1nonc1/C(=N/O)Nc1ccc(F)c(Br)c1 [8/1, N-(3-Bromo-4-fluorophenyl)-N-hydroxy-4-methoxy-1,2,5-oxadiazole-3-carboximidamide] | < 100 nM
COc1nonc1C(=NO)Nc1ccc(F)c(Cl)c1 [8/2] | 100 to 1000 nM
O/N=C(\Nc1ccc(F)c(Br)c1)c1nonc1OCC(F)(F)F [8/3, N-(3-Bromo-4-fluorophenyl)-N′-hydroxy-4-(2,2,2-trifluoroethoxy)-1,2,5-oxadiazole-3-carboximidamide] | 100 to 1000 nM
O=C(NCCOc1nonc1C(=NO)Nc1ccc(F)c(Cl)c1)c1ccc(F)cc1 [9/1] | 100 to 1000 nM
O=C(NCCOc1nonc1C(=NO)Nc1ccc(F)c(Cl)c1)c1ccc2[nH]ccc2c1 [9/2] | 100 to 1000 nM
O=C(NCCOc1nonc1C(=NO)Nc1ccc(F)c(Cl)c1)C1CC1 [9/3] | < 100 nM
O=C(NCCOc1nonc1C(=NO)Nc1ccc(F)c(Cl)c1)c1cnccn1 [9/4] | 100 to 1000 nM
O=C(NCCOc1nonc1C(=NO)Nc1ccc(F)c(Cl)c1)c1nnc[nH]1 [9/5] | 100 to 1000 nM
O=C(CC1SC(=O)NC1=O)NCCOc1nonc1C(=NO)Nc1ccc(F)c(Cl)c1 (stereo not drawn) [9/6] | > 1000 nM
O=C(NCCCOc1nonc1C(=NO)Nc1ccc(F)c(Cl)c1)C(O)CO (stereo not drawn) [9/7] | 100 to 1000 nM
O=C(NCCCOc1nonc1C(=NO)Nc1ccc(F)c(Cl)c1)c1nn[nH]n1 [9/8] | > 1000 nM
O=C(O)c1ccc(C(=O)NCCOc2nonc2C(=NO)Nc2ccc(F)c(Cl)c2)cc1 [9/9] | > 1000 nM
O=C(NCCOc1nonc1C(=NO)Nc1ccc(F)c(Cl)c1)c1n[nH]c(=O)[nH]1 [9/10] | > 1000 nM
CC(C)(C(=O)O)C(=O)NCCOc1nonc1C(=NO)Nc1ccc(F)c(Cl)c1 [9/11] | > 1000 nM
O=C(NCCOc1nonc1C(=NO)Nc1ccc(F)c(Cl)c1)C1(O)CC1 [9/12] | 100 to 1000 nM
O=C(O)c1cccc(C(=O)NCCOc2nonc2C(=NO)Nc2ccc(F)c(Cl)c2)c1 [9/13] | > 1000 nM
NS(=O)(=O)CC(=O)NCCOc1nonc1C(=NO)Nc1ccc(F)c(Cl)c1 [9/14] | 100 to 1000 nM
CS(=O)(=O)CC(=O)NCCOc1nonc1C(=NO)Nc1ccc(F)c(Cl)c1 [9/15] | < 100 nM
